Source: patent US8163803B2 (Fundação Oswaldo Cruz—FIOCRUZ, priority 2004, dated 2012)

How the values were obtained:
[1] = test system: patients; conditions: cited from earlier work
[2] = test system: isolated ileum of an experimental animal; assay: Contraction of isolated ileum induced by histamine; conditions: histamine (5 μM), average ±SEM, at least 3 animals; read-out: Stimulation with histamine IC50
Description: (§1) Female and male experimental animals were used, weighing between 300 and 400 g, they came from Oswaldo Cruz Foundation's Center of Laboratory Animal Raising. The procedures involving the animals were examined and approved by Oswaldo Cruz Foundation's Committee of Animal Ethics (CEUA-FIOCRUZ, Licenca no. 00085-02). The animals were sensitized through a subcutanous injection with a mixture of 50 μg ovoalbumin and 5 mg Al(OH)3. From fourteen to thirty days after the sensitization, the experimental, animal was sacrificed in a chamber of carbonic gas to have its abdomen open and the location of the ileocecal valve. At this point, the intestine was sectioned and a segment of the small intestine, about 20 cm (equivalent to the ileum) was carefully removed and internally washed with a warmed solution (37° C.) of Tyrode (Composition in mM) (NaCl 137; KCl 2.7; NaH2PO4 0.42; NaHCO3 11.9; MgCl2 0.5; CaCl2 1.8; glucose 5.6) to remove the fecal content. […].
(§2) About 3-cm ileum fragments were vertically mounted in 10 ml glass cuvettes, immersed in Tyrode's solution at 37° C., aerated with carbogen (O2, 95% and CO2, 5%) and supplemented with atropine according to the standard procedure. The tissue had one of its ends tied to a rod while the other end was coupled with a transductor after the transference from the rod to the cuvette. The contractions were isotonically registered (basal tension of 1 g) with the support of a transductor of displacement-force connected to a computerized system to capture data. After a 30 minute period of balance, each segment was repeatedly stimulated by histamine (1 μM) until response stabilization. To induce anaphylatic contraction, ileum segments from sensitized experimental animals were stimulated by ovoalbumin (10 μg/ml). […]. The results were presented as a percentage of inhibition calculated in relation to the contractive effect obtained from stimulated and non-treated preparations.
(§3) Concentration-response data were adjusted through non-linear regression curves with the assistence of a graphics software (GraphPad Prism, USA). The concentration of an antagonist needed to inhibit the contractive response to inhibit the contractive response after stimulation by histamine or antigen at 50% (IC50) was used to compare the anti-spasmodic potency. The values expressed as an average ± standard error of the mean and statistically analysed through the test of analysis variance (ANOVA), followed by the Newman-Keuls-Student test.

[3] = test system: cutaneous sites of the dorsal region of adult Wistar rats; assay: Local anesthetic activity, intradermal injection in dorsal skin, response to mechanical stimulation; assay type: in vivo; conditions: for time of anesthesia compared with lidocaine: doses from 0.5 to 4 μMol/site
Description: Female and male Wistar rats, weighing between 200 and 250 g, they came from Oswaldo Cruz Foundation's Center of Laboratory Animal Raising were used. The procedures involving the animals were examined and approved by Oswaldo Cruz Foundation's Committee of Animal Ethics (CEUA-FIOCRUZ, License number 00085-02). After brief anesthesia by exposure to the atmosphere enriched with […] animals were trichotomized dorsal region, where the […] injections with substances for test were performed; doses varied from 0.5 to 4 μMol/site, and vehicule (NaCl 0.9%) (negative control), the final volume was 50 μl. Each animal took six injections and four animals were used for each tested substance. The application points were mechanically estimulated with a tweezer in order to evaluate the integrity of sensitiveness. The site was considered not to be anesthesized whenever after the mechanical stimulation it was observed a local retraction of the skin, according to what had been previously reported. The evaluations began 10 minutes after intradermal injections had been taken, which continued every five minutes until it was obtained the cutaneous retraction response. The values (average±standard error of the mean, SEM) were expressed in terms of “Time of Anesthesia” in minutes.

[4] = test system: dorsal subcutaneous tissue of rats; assay: Anaphylactic release of histamine by fragments of dorsal subcutaneous tissue; design: species or system Wistar rats; conditions: for IC50: 60 min pre-treatment, read-out: IC50, inhibition of histamine release caused by anaphylatic stimulus
Description: Female and male Wistar rats were used, weighing between 180 and 200 g, they came from Oswaldo Cruz Foundation's Center of Laboratory Animal Raising. The procedures involving the animals were examined and approved by Oswaldo Cruz Foundation's Committee of Animal Ethics (CEUA-FIOCRUZ, Port. 00085-02). The rats were sensitized with a subcutaneous injection containing a mixture of 50 μg ovalbumina plus 5 mg Al(OH)3. Fourteen days after the sensitization the animals were sacrificed in a chamber of CO2, to have their dorsal hypodermis removed which was fragmented into smaller segments of about 3 mm in a Petri dish containing PBS. The fragments were individually transferred to a dish with 48 pools containing 500 μl of Hanks with Ca^++ and Mg^++.
Five experimental groups were studied in quadruplicates:
I. Saline group, negative control, pools where the tissue was neither treated nor stimulated;
II. Ovoalbumin group, positive control, pools where the tissue was not treated but it was stimulated by ovoalbumin (300 μg/ml);
III. JM24-1 group, pools where the tissue was previously treated with JM24-1 before the stimulation with ovoalbumin (300 μg/ml);
IV. JM25-1 group, pools where the tissue was previously treated with JM25-1 before the stimulation with ovoalbumin (300 μg/ml);
V. JMF2-1 group, pools where the tissue was previously treated with JMF2-1 before the stimulation with ovoalbumin (300 μg/ml).
Treated and non-treated pools were kept at 37° C. in a metabolic incubator (atmosphere containing 95% O2 and 5% CO2) for 60 minutes before the antigenic challenge. After the addition of ovoalbumin (300 μg/ml) all the pools were incubated again in a metabolic oven for more than 60 minutes. After removal of tissue for drying and weighing, the culture medium was collected and acidified with perchloric acid 0.4 N being, after centrifugation 150×g for 10 min. stocked at −20° C. until the moment of fluorimetric quantifying of histamine, according to the previous work. The values were shown like nanograms of released histamine by mg of tissue (dry weight).

[5] = test system: isolated ileum of an experimental animal; assay: Anaphylactic contraction of isolated ileum induced by antigen (ovoalbumin); conditions: antigen (10 μg/ml), average ±SEM, at least 3 animals; read-out: Stimulation with antigen IC50
Description: as §1, §2, §3

[6] = test system: experimental animal trachea; assay: Relaxation of trachea pre-contracted by anaphylactic stimulation (ovoalbumin); conditions: pre-contracted with ovoalbumin (20 μg/ml), average±SEM, at least 3 animals; read-out: IC50, concentration necessary to relax in 50% the anaphylatic spasm of trachea
Description: Female and male experimental animals were used, weighing between 300 and 400 g, they came from Oswaldo Cruz Foundation's Center of Laboratory Animal Raising. The procedures involving the animals were examined and approved by Oswaldo Cruz Foundation's Committee of Animal Ethics (CEUA-FIOCRUZ, License number 00085-02). The animals were sensitized through a subcutaneous injection with a mixture of 50 μg ovoalbumin and 5 mg Al(OH)3. Fourteen to thirty days after the sensitization, the experimental animal was sacrificed in a chamber of carbonic gas to have its trachea removed. The trachea was transferred to a Petri dish containing Krebs solution (composition in mM) (NaCl-119; […] NaHCO3-25; […] The total segment was divided into fragments of about 3 to 4 rings that were sectioned at the extreme ending, the muscular part of the trachea. Each fragment had one of its ends tied to a rod while the other end was connected to an isometric transductor (U Basile, Italy) after the transference from the rod to a 10 ml glass cuvette. […] The contractions were registered with the […] of a computerized system of data capture (Letica, Spain). […] The results were shown as a percentage of relaxation in relation to the plateau of the anaphylatic pre-contraction. Concentration-response data were adjusted through non-linear regression curves with the […] of a graphics software (GraphPad Prism, USA). […] The values were expressed as an average± standard error of the mean and statistically analysed through the test of analysis variance (ANOVA), followed by the Newman-Keuls-Student test.

[7] = test system: Na^+ currents in GH3 cells; assay: Tonic block of Na+ currents in GH3 cells, whole cell patch clamp; assay type: cell-based, Rat
Description: Ion channel currents were recorded by means of a patch clamp technique. The cells cultured on the cover glass were placed in a chamber fixed to a microscope stage and continuously perfused with extracellular Saline (A) solution (in mM); 150 NaCl, 5 KCl, 1 MgCl2, 0.01 CaCl2, 1 EGTA, 10 HEPES, 2 BaCl2, 0.1 CdCl2, pH 7.4 at room temperature (22-25° C.) adjusted with NaOH. The cells were observed using phase contrast mode under an inverted microscope (Axiovert 100, Carl Zeiss, Oberkochem, D Germany). Tight-seal (>10 GΩ) whole cell voltage-clamp recordings were performed with an Axopatch-1D amplifier (Axon Instruments, San Mateo, Calif.). […] Fifteen minutes after rupture of the patch membrane, we started to record ion channel currents. Pulse protocols and data acquisition were controlled by Digidata 1320 interface (Axon Instruments, Palo Alto, Calif.), and acquired on a personal computer using Clampex 9 software. The Na^+ current recordings were filtered at 1 kHz and sampled at 8 kHz. About 26% of series resistance was electronically compensated. Drugs were applied to the recording chamber by gravity. Perfusion rate was maintained at 0.8-1.1 ml/min and bath volume was of 50 μl. […] Voltage-gated Na^+ currents were recorded from these cells in the presence or absence of treatment.

[8] = test system: sensitized experimental animals; assay: Pulmonary eosinophil infiltrate after ovoalbumin aerosol challenge, bronchoalveolar lavage count; assay type: in vivo; conditions: 5% aerosol, 30 min, with ovoalbumin 1% plus 3 aerosolizations every 3 h; lavage 24 h after challenge
Description: The animals were sensitized through a cutaneous injection of a mixture with 50 μg ovoalbumin and 5 mg Al(OH)3, and challenged with ovoalbumin (1%) aerosol for 30 min 14 days afterwards, according to what was previously described. In order to avoid death of animals by anaphylatic asphyxia, all of them were treated intraperitonially with the anti-histaminic difenidramine (30 mg/kg) 30 minutes before being challenged.
Bronchoalveolar Lavage and Eosinophils Counting
All the animals were anesthesized terminally through an intraperitonial injection of pentobarbital (200 mg/kg) 24 h after the antigenic challenge, to wash the bronchoalveolar space according to the techniques previously described. Total leukocyte count were done after dilution of bronchoalveolar lavage samples in Turk liquid and counting in the Neubauer chamber with the assistance of direct-light microscopy. The differential eosinophil count was done also under direct-light microscopy, after centrifugation of samples of the lavage as well as its exposure to specific dyestuff (May-Grunwald-Giemsa dye).
The averages± standard error of the mean of the groups investigated were analyzed based on statistics through the test of variance analysis (ANOVA), followed by the Newman-Keuls-Student test.
Values, expressed in terms of “number of eosinophils×10^6/lavage” are presented as average±SEM in at least 7 animals. In the negative control group, animals previously sensitized were artificially-challenged through exposure to sterile saline (NaCl, 0.9%) aerosol. […] “*” represents the difference statistically significant (P<0.05), when the group treated and the positive control group were compared.

[9] = test system: Swiss 44 mice; assay: Convulsivant activity after intraperitoneal injection; assay type: in vivo; conditions: mouse, in vivo, ip
Description: Female and male Swiss 44 mice were used, weighing between 25 and 30 g, they came from Oswaldo Cruz Foundation's Center of Laboratory Animal Raising. The procedures involving the animals were examined and approved by Oswaldo Cruz Foundation's Committee of Animal Ethics (CEUA-FIOCRUZ, Act 00085-02). […] For each molecule, the necessary dose to induce a convulsive clinical Figure in 50% of the animals (DE50) was determined by linear regressive curves interpoled (GraphPad Prim, version 3.03).

Structure (SMILES)	attenuation of bronchospasm by histamine [1]	IC50 [2] [µM]	time of anesthesia compared with lidocaine [3]	inhibition of anaphylactic histamine release, result in words ([4]; ovoalbumin (300 μg/ml))	IC50 ([4]; ovoalbumin (300 μg/ml)) [µM]	IC50 [5] [µM]	IC50 [6] [µM]	Time of Anesthesia ([3]; 4 μMol/site intradermal, n=4, average±SEM) [min]	IC50 ([7]; GH3 cells, holding potential −80 mV to +60 mV step pulse, read-out: IC50, blockade of Na+ currents) [µM]	50% inhibitory concentration, times higher than lidocaine ([7]; ratio to lidocaine IC50) [times]	times more potent than lidocaine, histamine release ([4]; ratio to lidocaine)	blocking the accumulation of eosinophils in the bronchoalveolar area [8]	DE50, dose to induce convulsion in 50% of the animals [9] [mg/kg]
CCCCOc1ccc(C(=O)CCN2CCCCC2)cc1 [dyclonine]	ineffective	–	–	–	–	–	–	–	–	–	–	–	–
CCN(CC)CC(=O)Nc1cc(C)ccc1C [JM25-1, 2-dyethylamine-2′,5′-acetoxylidide]	–	140 ± 20	significantly inferior	concentrations comparable to that of lidocaine	8.35	120 ± 10	130 ± 20	–	–	–	–	–	–
CCN(CC)CC(=O)Nc1ccccc1C(F)(F)F [JMF2-1, 2-dyethylamine-2-trifluormetilacetotoluidide]	–	100 ± 10	significantly inferior	–	0.16	–	–	28 ± 1	25400	169	about 29 times	equipotent to lidocaine	305
